We go through six compounds from PMC10902301, “Interactions between the protein barnase and co-solutes studied by NMR” (Communications Chemistry, 2024).

The target in assay [1] is T1, barnase (Bacillus amyloliquefaciens, UniProt P00648, H149A). To be noted: for binding to barnase (in words): from curvature of chemical shift profiles; for mL for amide protons (1HN), mean ± standard deviation over residues: single co-solute titration up to 1 M, 5 mM acetate pH 5.8.
Experimental: (§1) For each titration point, protein 2D peak positions were measured and loaded into a database. […] We hypothesized that the hyperbolic parts indicate direct binding of the co-solute to the protein, while the linear parts represent indirect effects on the protein chemical shifts caused by interactions of the co-solute with the solvent, which thus leads to altered protein solvation. Linear changes in shift could also arise from co-solute-induced conformational changes in the protein. […] We therefore fitted the data to a sum of two equations: a hyperbolic curve plus a linear change. Fitting to the hyperbolic curve gives a resultant binding affinity, which can be tabulated as either a dissociation constant Kd (with units of concentration) or an association constant Ka (with units of reciprocal concentration). […] Thus in the analysis below, we use Ka when examining binding to the protein surface. We note that the linear change is in fact a binding curve with very weak affinity, and will therefore start to curve at some point. Based on the likely affinities, curvature is unlikely to become apparent until the co-solute reaches a concentration of several M.
(§2) For fitting shift changes to obtain the dissociation constant, one would normally use a quadratic equation[36]:1 Δδobs=Δδmax{([P]i+[L]i+Kd)–[([P]i+[L]i+Kd)^2−4[P]i[L]i]^1/2}/2[P]I
(§3) We have therefore used it throughout. The complete equation used here for fitting the experimental shift changes is therefore3 Δδobs=Δδmax.Li/Kd+Li+mLLi which gives three fitted values for each nucleus: Kd, Δδmax, and mL. mL is the gradient of the linear component, and gives information on the indirect effect of the co-solute on protein chemical shifts via its effect on solvent. […] We discuss later the significance of mL: for present purposes, it is an empirical parameter that describes how the co-solute affects the protein indirectly via solvent.
(§4) For these reasons, all experiments were carried out using 5 mM acetate, pH 5.8, conditions that gave reproducible peak positions while using only a very low concentration of additional solutes.
(§5) Chemical shifts of ^1HN, ^15N, and ^13C’ were measured and fitted to Eq. (3).
A further assay concerns protein surfaces. To be noted: molecular dynamics; ref Vrbka et al J Phys Chem B 2006 110:7036-7043; cited from earlier work.
The target of assay [2] is T1, barnase. The assay can be described thus: biochemical. The following applies: average dissociation constant Kd at thiocyanate binding region, residues 35–46, 81–86; single binding site assumed; pH 5.8.
Experimental: as §1, §2, §3, §4, §5

Several values for one entry are separate records, joined by “and”; a condition that tells them apart may be missing. Equal entries are not always repeated. Structures can show the parent of a compound that is named as a salt.

T1 sequence (P00648 48-157 H149A): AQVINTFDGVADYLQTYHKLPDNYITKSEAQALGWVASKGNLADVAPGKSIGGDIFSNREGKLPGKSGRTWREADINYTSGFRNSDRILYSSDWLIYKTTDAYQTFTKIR

`C[N+](C)(C)[O-]` [TMAO, trimethylamine N-oxide]: on barnase [1], the “binding to barnase (in words)” value is “only very weak binding” and the “mL for amide protons (1HN), mean ± standard deviation over residues” value (shortened to “mL … mean ± standard deviation over residues”) was “+9.7 ± 16.9 ppb/M”.

Consider `C[N+](C)(C)CC(=O)O` [betaine, N-trimethyl glycine], for which, at barnase [1], the “binding to barnase (in words)” value is reported as “no binding” and the “mL … mean ± standard deviation over residues” value was “+4.3 ± 15.9 ppb/M”. In addition, the “average Ka over all nuclei” value at barnase [1] (osmolyte titrations, average over residues that could be fitted) is reported as “no evidence of any binding”.

Turning to `Cl` [chloride, sodium chloride], the “contact times with protein surfaces in water” value in the assay on protein surfaces is listed as 0.1-0.8 ns. Besides, at barnase [1], the “binding to barnase (in words)” value is “overall weaker binding” and the “mL … mean ± standard deviation over residues” value is recorded as “–16 ± 26 ppb/M”.

For `CC1=N[C@H](C(=O)O)CCN1` [ectoine], at barnase [1], the “binding to barnase (in words)” value was “very little binding” and the “mL … mean ± standard deviation over residues” value is reported as “+16.5 ± 21.3 ppb/M”.

Take `O=S(=O)(O)O` [sulfate, sodium sulfate]: the “contact times with protein surfaces in water” value with protein surfaces is given as 0.1-0.8 ns.

`N#CS` [thiocyanate, sodium thiocyanate]: the Kd (in general, the free concentration of one partner at which half of the binding sites on the other are occupied at equilibrium, for simple one-to-one binding) on barnase [2] is 22 mM and ~22 mM. Also, the “average Ka” value at barnase [1] (average over binding-site residues 35–46 and 81–86, 1HN, 15N, 13C' nuclei) is listed as “about 45 M^−1”. At barnase [1], the “mL … mean ± standard deviation over residues” value was “–51 ± 51 ppb/M”.
